Data on one compound can be found in PMC10604274, “The Antiviral Activity of Varenicline against Dengue Virus Replication during the Post-Entry Stage” (Biomedicines, 2023).

The test addresses T1, DENV-2 NS2B-NS3 protease (Dengue virus 2 Thailand/16681/84, UniProt P29990).
T1 construct: NS2BNS3 gene RT-PCR amplified from DENV-2 16681 RNA genome; AVI tag in forward primer, F2A peptide in reverse primer; in pcDNA3.1-HisC (pcDNA-DEN2_NS2BNS3), transiently expressed in HEK293T; parts of the genome polyprotein; with Serine protease subunit NS2B
Briefly: cell-based.

The structures appear in SMILES notation.

T1 sequence (P29990 1346-2093 limits assumed): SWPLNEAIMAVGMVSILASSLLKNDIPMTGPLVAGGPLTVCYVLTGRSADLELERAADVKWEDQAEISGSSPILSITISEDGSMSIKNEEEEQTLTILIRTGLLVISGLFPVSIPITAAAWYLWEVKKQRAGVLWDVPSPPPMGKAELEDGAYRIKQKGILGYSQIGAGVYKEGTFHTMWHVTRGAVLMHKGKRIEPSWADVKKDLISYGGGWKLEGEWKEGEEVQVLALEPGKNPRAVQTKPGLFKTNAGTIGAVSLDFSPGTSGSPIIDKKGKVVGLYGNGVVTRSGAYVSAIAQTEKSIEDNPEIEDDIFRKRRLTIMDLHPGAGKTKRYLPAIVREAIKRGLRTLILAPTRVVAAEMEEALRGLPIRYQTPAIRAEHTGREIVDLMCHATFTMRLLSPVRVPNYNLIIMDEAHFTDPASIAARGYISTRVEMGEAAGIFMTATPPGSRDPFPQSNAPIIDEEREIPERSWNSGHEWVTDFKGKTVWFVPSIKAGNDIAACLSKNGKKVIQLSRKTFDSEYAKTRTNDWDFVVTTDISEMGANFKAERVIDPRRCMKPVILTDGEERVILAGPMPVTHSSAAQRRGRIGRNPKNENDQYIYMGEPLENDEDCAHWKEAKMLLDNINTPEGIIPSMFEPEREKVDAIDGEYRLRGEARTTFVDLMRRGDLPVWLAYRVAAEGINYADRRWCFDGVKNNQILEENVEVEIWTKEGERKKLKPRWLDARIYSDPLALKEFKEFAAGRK

`c1cnc2cc3c(cc2n1)C1CNCC3C1` [varenicline] yielded an IC50 of more than 20 µM.
